Source: ChEMBL document CHEMBL1201862, “PubChem BioAssay data set” (2004)
Activity calls are given as the source filed them.

Legend:
cells [1] = type: functional, cell-based
[2] = target: T1, Trace amine-associated receptor 1 (Homo sapiens, UniProt Q96RJ0); assay: Fluorescence-based cell-based high throughput dose response assay to identify agonists of the human trace amine associated receptor 1 (TAAR1).; type: functional
[3] = target: T1, Trace amine-associated receptor 1; assay: Counterscreen for agonists of the human trace amine associated receptor 1 (hTAAR1): Fluorescence-based cell-based high throughput dose response assay to identify hTAAR1 agonist that also desensitize TAAR1 receptor response.; type: functional
cells [4] = type: functional, cell-based; remark: listed apart in the source
[5] = Counterscreen for activators of the function of SWI/SNF related, matrix associated, actin dependent regulator of chromatin, subfamily a, member 2 (SMARCA2, BRM): Luminescence-based cell-based high throughput dose response assay to identify non-selective compounds using the VP16 reporter assay.; type: functional
[6] = target: SWI/SNF-related matrix-associated actin-dependent regulator of chromatin subfamily A member 2 (Homo sapiens, UniProt P51531); assay: Luminescence-based cell-based high throughput dose response assay to identify activators of the function of SWI/SNF related, matrix associated, actin dependent regulator of chromatin, subfamily a, member 2 (SMARCA2, BRM).; type: functional
[7] = viability loss in HepG2 hepatoma cells – cell-based, cherry-picks, set 5, cytotoxicity control, dose response (AID 1053118); type: functional
[8] = P. falciparum Dd2 growth inhibitors, dose response, SYBR Green, cherry-picked samples (AID 1159567); type: functional, cell-based
[9] = viability loss in A549 lung cancer cells – cell-based, cherry-picks, […], cytotoxicity control, dose response (AID 1053119); type: functional
[10] = toxicity to human hepatoma HepG2 cells – cell-based, cherry-picked samples, cytotoxicity control, dose response (AID 1159577); type: functional
[11] = viability loss in HEK293 kidney cells – cell-based, cherry-picks, set 5, cytotoxicity control, dose response (AID 1053117); type: functional
[12] = HeLa cell viability loss – plate reader, dry powder, cytotoxicity control, dose response (AID 651946); type: functional, cell-based
Fatty acid synthase [13] = target: T2, Fatty acid synthase (Homo sapiens, UniProt P49327); assay: inhibition of human FAS-TE enzyme activity – biochemical, kinetic fluorescence intensity, dose response (AID 624326); type: functional;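 note: rate of fluorescence rise from hydrolysis of a fluorogenic O-methyl fluorescein ester substrate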
[14] = target: Matrix metalloproteinase-14 (Homo sapiens, UniProt P50281); assay: Dose Response confirmation of uHTS hits for a small molecule inhibitors of MT1-MMP activation in a fluorescence assay set 1.; type: functional
Fatty acid synthase [15] = target: T2, Fatty acid synthase; assay: inhibition of human FAS-TE enzyme activity – biochemical, endpoint fluorescence intensity, uHTS hits, dose response (AID 624327); type: functional;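 note: fluorescence from hydrolysis of an O-methyl fluorescein acyl ester substrate by the enzyme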
Nonstructural protein 1 = Nonstructural protein 1 (Influenza A virus, UniProt Q194T2); type: functional, Influenza A virus (A/California/07/2009(H1N1))
[16] = inhibition of mouse IRAP aminopeptidase activity – biochemical, Leu-AMC fluorescence, cherry-picked samples, set 2, selectivity assay for ERAP1 modulator project, dose response (AID 743340)
[17] = target: Photoreceptor-specific nuclear receptor (Homo sapiens, UniProt Q9Y5X4); assay: ligands suppressing NR2E3 nuclear receptor activity – biochemical, TR-FRET, dose response (AID 463256); type: functional
[18] = target: Peroxisome proliferator-activated receptor gamma/Nuclear receptor corepressor 2 (Homo sapiens, UniProt P37231+Q9Y618); assay: Counterscreen for NR2E3 inverse agonists: TR-FRET-based biochemical high throughput dose response assay to identify inverse agonists of the interaction between peroxisome proliferator-activated receptor gamma (PPARg) and nuclear receptor co-repressor 2 (NCOR2).; type: functional
[19] = HGIII-sPLA2 enzyme inhibition potency – biochemical, QFRET, IC50, dose response (AID 743457);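 note: green fluorescence rise as the enzyme cleaves BODIPY PC-A2 in liposomes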
[20] = target: T3, Disintegrin and metalloproteinase domain-containing protein 17 (Homo sapiens, UniProt P78536); assay: exosite inhibitors of ADAM17, dose response, biochemical (AID 743260)
[21] = inhibition of ADAM10 peptide cleavage – biochemical, FRET peptide substrate, recombinant human ADAM10, selectivity assay for ADAM17 exosite inhibitor project, dose response (AID 743259);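 note: ADAM10 enzyme cleaving a FRET peptide substrate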
[22] = general mammalian cell viability loss – inhibitor set, cherry-pick, set 2, cytotoxicity control for miR-122 modulator project, dose response (AID 720697); type: functional, cell-based
[23] = IGROV1 cell killing – plate reader, dry powder samples, PAX8 inhibitor project, dose response (AID 743043); type: functional, cell-based; settings: IGROV-1
Paired box protein Pax-8 = Paired box protein Pax-8 (Homo sapiens, UniProt Q06710); assay: PAX8 transcriptional activity inhibition in RMG-I – RMG-I cells, luciferase, cherry-pick, dose response (AID 687027); type: functional, cell-based;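 note: luciferase reporter driven by Pax8 target thyroperoxidase promoter measured by SteadyGlo luminescence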
[24] = OVCAR-3 cell viability loss – plate reader, dry powder samples, PAX8 inhibitor project, dose response (AID 743044); type: functional, cell-based
[25] = CMV-driven luciferase expression suppression in HEK293 – cell-based, luminescence, dry powder, counter-screen for Pax8 inhibitor project, dose response (AID 743020); type: functional
[26] = general cell-killing toxicity readout – plate reader, dry powder samples, cytotoxicity control for PAX8 inhibitor project, dose response (AID 743021); type: functional, cell-based
[27] = microbe, parasite or virus in culture; type: functional; settings: Mycobacterium tuberculosis
[28] = target: T3, Disintegrin and metalloproteinase domain-containing protein 17; assay: inhibition of ADAM17 substrate cleavage – biochemical, quenched FRET substrate, counter-screen for ADAM10 exosite inhibitor project, dose response (AID 743253)
[29] = potency of ADAM10 substrate cleavage blockers – biochemical, QFRET, dose response (AID 743254);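 note: ADAM10 enzyme with the DM2 quenched FRET peptide as substrate; EDANS fluorescence gain as the protease cuts the substrate; inhibitor potency against ADAM10 proteolytic activity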
[30] = target: Metabotropic glutamate receptor 5 (Rattus norvegicus, UniProt P31424); assay: Identification of a glycine sulfonamide based non-MPEP site positive allosteric potentiator (PAM) of mGlu5 (calcium_assay).; type: functional
A549 = assay: viability loss in A549 cells – cell-based, plate reader, cherry-pick samples, cytotoxicity control, dose response (AID 687028); type: functional; settings: Homo sapiens
Beta-galactosidase = Beta-galactosidase (Escherichia coli, UniProt Q8VNN2); assay: Dose response counterscreen for EBI2 assay utilizing the enzyme, b-galactosidase.; type: functional
[31] = Trypanosoma cruzi growth suppression in host cells – NIH3T3 host cells, beta-gal luminescence, confirmation (AID 2044); type: functional, cell-based;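 note: intracellular parasites grown in NIH/3T3 mouse fibroblasts as host cells; luminescent beta-galactosidase reporter signal from transgenic T. cruzi replicating inside host cells; inhibitors lower the luminescence signal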
[32] = NIH3T3 cell viability loss – ATP luminescence, mouse fibroblasts, counter-screen, dose response (AID 2010); type: functional, cell-based;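 note: cells exposed to compound for about 90 hours before reading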
[33] = target: Arf-GAP with SH3 domain, ANK repeat and PH domain-containing protein 1 (Homo sapiens, UniProt Q9ULH1); type: functional;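 note: biochemical fluorescence polarization dose–response screen measuring inhibition of ASAP1; ASAP1 GAP domain stimulating GTP hydrolysis by truncated human ARF1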
HeLa = assay: viability loss in HeLa cells – cell-based, ATP luminescence, cherry-pick samples, cytotoxicity control, dose response (AID 687004); type: functional; settings: Homo sapiens
[34] = inhibitors of EBV LMP1 NF-kappaB signaling – cell-based, luciferase reporter, luminescence, dry powder, set 2, dose response (AID 624376); type: functional
[35] = LMP1-induced NF-kB luciferase signal inhibition – cell-based, EBV LMP1, dry powder, set 2, dose response (AID 624361); type: functional
Vero = assay: viability loss in Vero cells – cell-based, plate reader, cherry-pick samples, cytotoxicity control, dose response (AID 687020); type: functional; settings: Chlorocebus sabaeus
[36] = target: 1-phosphatidylinositol 4,5-bisphosphate phosphodiesterase gamma-1 (Homo sapiens, UniProt P19174); assay: Counterscreen for inhibitors of phospholipase C isozymes (PLC-B3): Fluorescence-based biochemical high throughput dose response assay to identify inhibitors of phospholipase C isozymes (PLC-gamma1).
[37] = target: 1-phosphatidylinositol 4,5-bisphosphate phosphodiesterase beta-3 (Homo sapiens, UniProt Q01970); assay: Fluorescence-based biochemical high throughput dose response assay to identify inhibitors of phospholipase C isozymes (PLC-B3).
[38] = target: T4, Carboxy-terminal domain RNA polymerase II polypeptide A small phosphatase 1 (Homo sapiens, UniProt Q9GZU7); assay: CTDSP1 inhibitors, concentration-response, biochemical, absorbance readout, ultra-high-throughput screen actives (AID 540297); type: functional
T4 sequence (Q9GZU7 whole entry): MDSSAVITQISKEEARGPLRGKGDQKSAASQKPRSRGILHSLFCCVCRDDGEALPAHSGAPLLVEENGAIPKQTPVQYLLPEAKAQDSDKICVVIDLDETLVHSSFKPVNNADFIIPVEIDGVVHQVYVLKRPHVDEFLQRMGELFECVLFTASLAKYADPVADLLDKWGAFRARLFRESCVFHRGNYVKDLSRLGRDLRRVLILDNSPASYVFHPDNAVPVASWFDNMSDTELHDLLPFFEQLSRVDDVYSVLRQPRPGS

T1 sequence (Q96RJ0 whole entry): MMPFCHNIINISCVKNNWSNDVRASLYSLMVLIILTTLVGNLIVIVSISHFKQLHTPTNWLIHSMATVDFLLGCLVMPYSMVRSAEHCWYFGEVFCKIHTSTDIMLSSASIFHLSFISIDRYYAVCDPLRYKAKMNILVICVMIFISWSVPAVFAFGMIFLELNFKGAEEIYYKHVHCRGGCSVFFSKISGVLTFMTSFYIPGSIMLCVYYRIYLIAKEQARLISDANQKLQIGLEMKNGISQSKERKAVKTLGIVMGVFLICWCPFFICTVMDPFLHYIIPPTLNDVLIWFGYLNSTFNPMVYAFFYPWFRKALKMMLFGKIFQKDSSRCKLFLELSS
T2 sequence (P49327 whole entry): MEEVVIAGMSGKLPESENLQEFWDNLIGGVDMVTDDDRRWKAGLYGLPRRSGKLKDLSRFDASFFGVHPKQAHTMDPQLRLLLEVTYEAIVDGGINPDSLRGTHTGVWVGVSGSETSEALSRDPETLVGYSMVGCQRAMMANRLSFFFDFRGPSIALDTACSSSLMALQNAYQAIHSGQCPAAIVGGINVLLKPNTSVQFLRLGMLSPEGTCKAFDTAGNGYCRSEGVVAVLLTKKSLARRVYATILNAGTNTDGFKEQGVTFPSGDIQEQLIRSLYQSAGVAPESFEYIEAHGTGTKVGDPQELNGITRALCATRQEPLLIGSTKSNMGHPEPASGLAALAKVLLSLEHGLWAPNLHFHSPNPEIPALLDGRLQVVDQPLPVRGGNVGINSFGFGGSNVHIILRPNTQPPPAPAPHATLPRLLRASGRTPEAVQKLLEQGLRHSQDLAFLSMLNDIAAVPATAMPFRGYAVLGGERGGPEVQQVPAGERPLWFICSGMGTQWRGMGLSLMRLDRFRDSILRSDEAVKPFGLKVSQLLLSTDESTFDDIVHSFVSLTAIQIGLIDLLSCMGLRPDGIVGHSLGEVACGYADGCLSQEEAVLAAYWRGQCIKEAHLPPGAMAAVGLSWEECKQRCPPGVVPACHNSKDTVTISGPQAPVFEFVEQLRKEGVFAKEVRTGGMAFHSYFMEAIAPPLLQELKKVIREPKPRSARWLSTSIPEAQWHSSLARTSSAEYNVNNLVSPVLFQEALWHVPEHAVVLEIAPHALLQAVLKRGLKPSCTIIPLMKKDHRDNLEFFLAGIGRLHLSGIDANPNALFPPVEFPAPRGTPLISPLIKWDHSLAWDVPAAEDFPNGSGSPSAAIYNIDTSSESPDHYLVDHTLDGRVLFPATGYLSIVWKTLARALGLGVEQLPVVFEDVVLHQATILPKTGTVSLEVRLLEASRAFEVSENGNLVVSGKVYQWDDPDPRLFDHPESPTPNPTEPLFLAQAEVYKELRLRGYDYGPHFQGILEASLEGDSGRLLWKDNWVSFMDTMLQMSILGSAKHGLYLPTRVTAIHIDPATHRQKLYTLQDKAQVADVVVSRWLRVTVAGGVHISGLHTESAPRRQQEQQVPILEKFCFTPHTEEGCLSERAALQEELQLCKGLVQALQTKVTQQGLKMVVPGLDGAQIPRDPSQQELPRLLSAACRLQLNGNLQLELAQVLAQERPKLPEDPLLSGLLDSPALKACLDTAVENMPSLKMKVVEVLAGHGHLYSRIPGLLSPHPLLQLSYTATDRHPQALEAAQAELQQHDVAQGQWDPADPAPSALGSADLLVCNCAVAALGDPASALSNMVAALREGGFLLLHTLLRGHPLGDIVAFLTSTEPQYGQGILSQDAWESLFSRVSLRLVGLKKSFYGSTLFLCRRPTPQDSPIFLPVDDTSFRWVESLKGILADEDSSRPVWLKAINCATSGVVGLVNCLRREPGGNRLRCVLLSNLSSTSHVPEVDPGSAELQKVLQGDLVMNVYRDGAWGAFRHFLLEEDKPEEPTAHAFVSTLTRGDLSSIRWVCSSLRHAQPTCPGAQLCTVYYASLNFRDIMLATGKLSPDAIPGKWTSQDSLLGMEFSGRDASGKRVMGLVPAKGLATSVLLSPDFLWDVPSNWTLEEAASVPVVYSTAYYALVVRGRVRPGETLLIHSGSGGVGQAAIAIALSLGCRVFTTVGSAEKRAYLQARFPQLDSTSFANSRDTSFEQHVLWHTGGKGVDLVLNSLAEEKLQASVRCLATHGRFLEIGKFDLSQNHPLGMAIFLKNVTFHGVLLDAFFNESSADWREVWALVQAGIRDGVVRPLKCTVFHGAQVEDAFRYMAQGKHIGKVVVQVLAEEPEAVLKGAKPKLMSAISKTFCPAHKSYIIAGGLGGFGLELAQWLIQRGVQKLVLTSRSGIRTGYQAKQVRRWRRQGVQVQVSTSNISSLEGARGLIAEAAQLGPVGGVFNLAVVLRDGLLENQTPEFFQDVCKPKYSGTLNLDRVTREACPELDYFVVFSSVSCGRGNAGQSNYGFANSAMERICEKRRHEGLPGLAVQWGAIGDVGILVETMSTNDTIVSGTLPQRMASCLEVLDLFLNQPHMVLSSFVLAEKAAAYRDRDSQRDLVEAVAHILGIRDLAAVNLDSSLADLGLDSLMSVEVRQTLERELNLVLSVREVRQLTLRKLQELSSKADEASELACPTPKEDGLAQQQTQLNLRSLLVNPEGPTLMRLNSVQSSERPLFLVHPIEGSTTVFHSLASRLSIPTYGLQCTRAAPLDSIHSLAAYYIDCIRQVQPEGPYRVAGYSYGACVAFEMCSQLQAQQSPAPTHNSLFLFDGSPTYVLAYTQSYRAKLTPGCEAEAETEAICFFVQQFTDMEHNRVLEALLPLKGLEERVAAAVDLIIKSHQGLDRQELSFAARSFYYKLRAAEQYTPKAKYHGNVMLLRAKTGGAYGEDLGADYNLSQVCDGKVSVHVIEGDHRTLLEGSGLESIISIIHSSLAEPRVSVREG
T3 sequence (P78536 whole entry, the tested form may be a part): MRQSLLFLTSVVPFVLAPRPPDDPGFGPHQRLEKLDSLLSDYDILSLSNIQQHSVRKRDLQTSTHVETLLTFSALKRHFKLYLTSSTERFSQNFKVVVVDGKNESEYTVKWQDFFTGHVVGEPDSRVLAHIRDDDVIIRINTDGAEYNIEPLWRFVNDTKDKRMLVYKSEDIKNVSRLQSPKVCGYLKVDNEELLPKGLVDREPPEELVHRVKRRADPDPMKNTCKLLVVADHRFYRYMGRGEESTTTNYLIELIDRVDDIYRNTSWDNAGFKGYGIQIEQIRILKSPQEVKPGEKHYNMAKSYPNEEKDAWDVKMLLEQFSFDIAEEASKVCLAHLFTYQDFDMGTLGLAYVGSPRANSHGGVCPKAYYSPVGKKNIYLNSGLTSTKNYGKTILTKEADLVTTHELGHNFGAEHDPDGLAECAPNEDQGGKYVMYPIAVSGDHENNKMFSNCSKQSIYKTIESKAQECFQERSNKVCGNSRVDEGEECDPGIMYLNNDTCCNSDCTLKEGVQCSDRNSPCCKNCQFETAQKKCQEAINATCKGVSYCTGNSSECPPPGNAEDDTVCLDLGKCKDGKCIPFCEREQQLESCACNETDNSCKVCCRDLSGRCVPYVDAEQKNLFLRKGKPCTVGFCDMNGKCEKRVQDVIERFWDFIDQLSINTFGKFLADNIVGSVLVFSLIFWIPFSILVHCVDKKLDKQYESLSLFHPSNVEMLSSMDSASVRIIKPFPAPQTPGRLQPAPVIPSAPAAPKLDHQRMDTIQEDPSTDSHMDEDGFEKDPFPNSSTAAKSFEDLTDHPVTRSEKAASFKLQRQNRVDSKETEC
Beta-galactosidase, sequence (Q8VNN2 whole entry): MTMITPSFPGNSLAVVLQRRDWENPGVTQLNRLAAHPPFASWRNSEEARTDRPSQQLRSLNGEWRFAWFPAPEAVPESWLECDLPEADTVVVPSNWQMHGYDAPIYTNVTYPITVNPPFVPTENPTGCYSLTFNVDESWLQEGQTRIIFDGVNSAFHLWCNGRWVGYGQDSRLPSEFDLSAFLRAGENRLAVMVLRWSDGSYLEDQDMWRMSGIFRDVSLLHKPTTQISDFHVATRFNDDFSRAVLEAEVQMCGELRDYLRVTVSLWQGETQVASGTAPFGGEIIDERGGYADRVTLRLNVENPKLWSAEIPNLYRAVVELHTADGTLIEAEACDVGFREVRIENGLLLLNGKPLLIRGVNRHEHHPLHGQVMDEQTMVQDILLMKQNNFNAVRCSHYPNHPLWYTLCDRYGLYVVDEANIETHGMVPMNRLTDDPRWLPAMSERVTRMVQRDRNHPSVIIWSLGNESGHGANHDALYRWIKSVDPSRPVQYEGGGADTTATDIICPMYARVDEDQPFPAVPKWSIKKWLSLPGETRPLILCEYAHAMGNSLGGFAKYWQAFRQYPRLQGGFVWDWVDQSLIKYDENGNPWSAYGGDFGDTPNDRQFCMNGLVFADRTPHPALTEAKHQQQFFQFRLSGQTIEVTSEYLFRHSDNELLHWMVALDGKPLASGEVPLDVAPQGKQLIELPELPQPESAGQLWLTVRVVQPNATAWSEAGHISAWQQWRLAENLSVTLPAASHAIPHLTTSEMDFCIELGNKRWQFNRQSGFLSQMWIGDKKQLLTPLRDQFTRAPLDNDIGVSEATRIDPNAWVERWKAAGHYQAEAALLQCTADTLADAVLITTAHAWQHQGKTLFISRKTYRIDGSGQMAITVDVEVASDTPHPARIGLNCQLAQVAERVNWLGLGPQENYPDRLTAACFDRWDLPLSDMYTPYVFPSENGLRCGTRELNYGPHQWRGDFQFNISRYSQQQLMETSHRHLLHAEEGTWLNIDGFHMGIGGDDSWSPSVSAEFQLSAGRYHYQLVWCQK
Photoreceptor-specific nuclear receptor, sequence (Q9Y5X4 whole entry): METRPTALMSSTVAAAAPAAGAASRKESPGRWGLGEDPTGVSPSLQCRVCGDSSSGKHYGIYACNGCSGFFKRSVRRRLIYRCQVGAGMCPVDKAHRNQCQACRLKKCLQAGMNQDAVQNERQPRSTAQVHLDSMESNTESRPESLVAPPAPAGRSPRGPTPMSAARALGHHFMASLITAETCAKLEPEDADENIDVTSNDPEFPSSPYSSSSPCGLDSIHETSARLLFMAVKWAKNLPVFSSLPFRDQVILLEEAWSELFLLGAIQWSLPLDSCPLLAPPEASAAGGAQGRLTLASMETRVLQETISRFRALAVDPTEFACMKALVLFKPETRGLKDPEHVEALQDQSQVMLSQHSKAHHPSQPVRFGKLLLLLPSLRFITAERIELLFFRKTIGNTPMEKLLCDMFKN

For `CC(C)[C@H](NC(=O)c1ccc(Cl)cc1Cl)C(=O)N1CCC[C@H]1C(=O)NCCc1ccccc1Cl`, the EC50 (cells [1]) was > 29.9 µM (inactive), the EC50 [2] was 1.19 µM (active) and the IC50 [3] was 3.47 µM (active). The IC50 (cells [4]) was > 29.9 µM (inactive).
For `O=C(C=Cc1ccc(OCc2ccccc2)cc1)c1c(F)cccc1F`, the EC50 [5] was > 91.2 µM (inactive) and the EC50 [6] was > 91.2 µM (inactive).
For `CO[C@H]1CN(C)C(=O)c2ccc(NC(=O)c3ccc(-c4ccccc4)cc3)cc2OC[C@@H](C)NC[C@H]1C`, the AC50 [7] was 15.5 µM (active), the AC50 [8] was 6.23 µM (active) and the AC50 [9] was 26.2 µM (active). The AC50 [10] was 22 µM (active) and the AC50 [11] was 20.5 µM (active).
For `c1ccc(-c2nnc(SCc3cscn3)o2)cc1`, the AC50 [12] was > 52 µM (inactive).
In the case of `CN1C(=O)/C(=C\c2cc(N=Nc3ccccc3)ccc2O)SC1=S`, the IC50 (Fatty acid synthase [13]) is reported as 24.4 µM (inactive), the IC50 [14] is reported as > 80 µM (inactive) and the IC50 (Fatty acid synthase [15]) is reported as 33.7 µM (inactive). The IC50 (Nonstructural protein 1) was 4.51 µM (active).
With `CCCN(C)C[C@@H]1OCCCC[C@H](C)Oc2ccc(NC(=O)Nc3ccc(F)cc3)cc2C(=O)N([C@H](C)CO)C[C@@H]1C` the AC50 [16] was 13.1 µM (active).
For `CCn1c(S)nnc1-c1csc2c1CCCC2`, the IC50 [17] was 25.2 µM (not active), the IC50 [18] was > 39.8 µM (not active) and the IC50 [19] was > 122 µM (inactive).
With `Cc1ccccc1NC1=NC(=O)/C(=C/c2cccn2C)S1` the IC50 [20] was > 69.5 µM (inactive) and the IC50 [21] was > 69.5 µM (inactive).
With `CCNC(=O)CCC(=O)Nc1cc(Cl)ccc1C` the AC50 [22] was 9 µM (active).
With `C[C@@H]1CCCCO[C@@H](CN(C)S(=O)(=O)c2ccccc2)[C@H](C)CN([C@H](C)CO)C(=O)c2cc(NC(=O)Nc3ccc(C(F)(F)F)cc3)ccc2O1` the AC50 [23] was 57.1 µM (active), the AC50 (Paired box protein Pax-8) was 3.44 µM (active) and the AC50 [24] was 20.2 µM (active). For the same molecule, the AC50 [25] was 28.4 µM (active) and the AC50 [26] was 54.7 µM (active).
For `Cc1ccc(C)c(S(=O)(=O)N2CCC(c3nc(O)c4nnn(Cc5ccc6c(c5)OCCO6)c4n3)CC2)c1`, the CC50 [27] was > 40 µM (active), the IC50 [28] was > 69.5 µM (inactive) and the IC50 [29] was > 69.5 µM (inactive).
In the case of `O=S(=O)(c1ccc(F)cc1)N1CCCC(c2nc(-c3ccc(F)cc3)no2)C1` (centres undefined), the EC50 [30] is reported as 4.53 µM.
With `CCOC(=O)[C@]12CCC=C1N(Cc1ccccc1)C(=O)[C@H](CC(=O)N1CCCC1)C2` the AC50 (A549) was 25.3 µM (active).
With `COc1ccccc1N1CCN(C(=O)c2cc(=O)c3cc(C)ccc3o2)CC1` the IC50 (Beta-galactosidase) was > 80 µM (inactive).
With `CCc1cccc2c(C(=O)CN3C(=O)NC(C)(c4cccc5ccccc45)C3=O)c[nH]c12` (centres undefined) the EC50 [31] was 1.75 µM (active), the EC50 [32] was > 30 µM (not active) and the IC50 [33] was 165 µM (inactive).
With `CCC(=O)N(C)C[C@H]1Oc2cc(-c3ccccc3)ccc2S(=O)(=O)N([C@H](C)CO)C[C@H]1C` the AC50 (HeLa) was 4.07 µM (active).
`COc1ccc(CNC(=O)c2cc3c(c(-c4cccc(-c5ccc(C#N)cc5)c4)n2)[C@@H](CCO)N([S@+]([O-])C(C)(C)C)C3)cc1` showed an AbsAC35 [34] of 56.25 µM and an AbsAC35 [35] of 108.86 µM.
For `CN(C)C1(CNC(=O)C2CCN(S(=O)(=O)c3ccccc3C(F)(F)F)CC2)CCCCC1`, the AC50 (Vero) was 36.2 µM (active).
In the case of `Cc1cccc(NC(=O)Cn2c(O)c(N=NC(=O)c3ccccc3O)c3ccccc32)c1`, the IC50 [36] is reported as > 123 µM (inactive), the IC50 [37] is reported as > 123 µM (inactive) and the IC50 [38] is reported as 1.99 µM (active).
